In data set [1] the test system is Staphylococcus aureus. Nature of the data set: Bactericidal activity against Staphylococcus aureus ATCC 6538 cultured in MH medium assessed as reduction in bacterial survival incubated for 48 hrs by microbroth dilution method. Type of data set: functional. The following applies: ATCC 6538, 48 h.
For data set [2], the system named is Enterococcus hirae. Briefly: Bactericidal activity against Enterococcus hirae ATCC 1052 cultured in BHI medium assessed as reduction in bacterial survival incubated for 48 hrs by microbroth dilution method. Type of data set: functional. Particulars: ATCC 1052, 48 h. In general terms: Broth dilution looks for growth in wells or tubes with falling amounts of substance.

Data set [3] deals with Bacillus spizizenii. Briefly: Bactericidal activity against Bacillus subtilis ATCC 6633 cultured in MH medium assessed as reduction in bacterial survival incubated for 48 hrs by microbroth dilution method. Format: functional. The following applies: ATCC 6633, 48 h.
The subject of data set [4] is Escherichia coli. Nature of the data set: Antibacterial activity against Escherichia coli ATCC 8739 cultured in MH medium assessed as reduction in bacterial growth incubated for 48 hrs by microbroth dilution method. Type of data set: functional. Particulars: ATCC 8739, 48 h.
Data set [5] relates to Pseudomonas aeruginosa. Briefly: Antibacterial activity against Pseudomonas aeruginosa ATCC 9027 cultured in MH medium assessed as reduction in bacterial growth incubated for 48 hrs by microbroth dilution method. The following applies: ATCC 9027, 48 h. Format: functional.
Data set [6] deals with Staphylococcus epidermidis. Nature of the data set: Antibacterial activity against methicillin resistant Staphylococcus epidermidis ATCC 13199 cultured in MH medium assessed as reduction in bacterial growth incubated for 48 hrs by microbroth dilution method. Type of data set: functional. The following applies: ATCC 13199, 48 h.
Data set [7] has as its system Staphylococcus epidermidis. Nature of the data set: Bactericidal activity against methicillin resistant Staphylococcus epidermidis ATCC 13199 cultured in MH medium assessed as reduction in bacterial survival incubated for 48 hrs by microbroth dilution method. The following applies: ATCC 13199, 48 h. Type of data set: functional.
The target in data set [8] is DNA gyrase (Escherichia coli, UniProt P0AES4+P0AES6). Briefly: Inhibition of Escherichia coli DNA gyrase super-coiling activity using relaxed pNO1 DNA as substrate incubated for 30 mins by fluorescence assay. Format: protein-complex assay.
Data set [9] has as its system Staphylococcus aureus. Nature of the data set: Antibiofilm activity against Staphylococcus aureus ATCC 25923 assessed as biofilm biomass at <0.625 uM incubated for 24 hrs compound added prior to bacterial biofilm formation by crystal violet staining based assay. Type of data set: functional, organism-based.
The subject of data set [10] is Staphylococcus aureus. Nature of the data set: Biofilm degradation activity against Staphylococcus aureus ATCC 6538 assessed as biofilm formation at 2 times antibacterial MIC incubated for 24 hrs compound added post-biofilm formation by total biomass crystal violet staining-based method. Type of data set: functional.
Data set [11] deals with Escherichia coli. Nature of the data set: Antibacterial activity against Escherichia coli ATCC 8739 assessed as reduction in cell number with morphological disorders at 128 ug/ml incubated for 30 mins by laser confocal microscopy. Type of data set: functional, organism-based.
For data set [12], the system named is Escherichia coli. Briefly: Antibacterial activity against Escherichia coli ATCC 8739 assessed as bacterial cell swelling followed by non-divisional long cord formation and cell aggregates formation at 128 ug/ml incubated for 30 mins by laser confocal microscopy. Format: functional, organism-based.
Data set [13] concerns Escherichia coli. Briefly: Induction of inner membrane permeabilization in Escherichia coli ATCC 8739 assessed as increase in release of cytoplasmic beta galactosidase using ONPG as substrate at 128 ug/ml incubated for 90 mins compound added with bacterial cells after lag time of about 10 mins by spectrophotometry. Type of data set: organism-based.
In data set [14] the test system is Staphylococcus aureus. Briefly: Antibiofilm activity against Staphylococcus aureus ATCC 25923 pre-formed mature biofilm assessed as reduction in biofilm viability at 40 uM incubated for 24 hrs compound added post-biofilm formation by resazurin staining based assay relative to control. Format: functional. The following applies: ATCC 25923, 24 h.
Data set [15] has as its system Staphylococcus aureus. Briefly: Antibiofilm activity against Staphylococcus aureus ATCC 25923 pre-formed mature biofilm assessed as reduction in biofilm biomass at 40 uM incubated for 24 hrs compound added post biofilm formation by crystal violet staining based assay relative to control. Format: functional. Particulars: ATCC 25923, 24 h.
The test system of data set [16] is Escherichia coli. Nature of the data set: Induction of inner membrane permeabilization in Escherichia coli ATCC 8739 assessed as increase in release of cytoplasmic beta galactosidase using ONPG as substrate at above bactericidal concentration incubated for 90 mins compound added with bacterial cells after lag time of about 10 mins by spectrophotometry. Type of data set: organism-based.

Data set [17] can be described thus: Drug uptake in Escherichia coli ATCC 8739 assessed as membrane accumulation and affinity to cell structure at 128 ug/ml incubated for 30 mins by laser confocal microscopy. Format: ADME. Particulars: 0.5 h.
The nature of data set [18]: Drug uptake in Escherichia coli ATCC 8739 assessed as cellular accumulation treated with 100 uM CCCP for 10 mins prior to compound challenge for 0.5 hrs by laser confocal microscopy. Format: ADME.
The test system of data set [19] is Staphylococcus epidermidis. Nature of the data set: Resistance index, ratio of MIC for methicillin resistant Staphylococcus epidermidis ATCC 13199 measured after 4 dilution steps to MIC for Staphylococcus epidermidis ATCC 13199 measured after 48 hrs incubation by microbroth dilution method. Format: functional.
Data set [20] relates to Staphylococcus epidermidis. Briefly: Resistance index, ratio of MIC for methicillin resistant Staphylococcus epidermidis ATCC 13199 measured after 2 dilution steps to MIC for Staphylococcus epidermidis ATCC 13199 measured after 48 hrs incubation by microbroth dilution method. Type of data set: functional.

The structures appear in SMILES notation. Activity calls are given as the source filed them.

In the case of `CCn1cc(C(=O)O)c(=O)c2cc(F)c(N3CC[N+]4(CN5C(=N4)C(C(=O)O)=Cc4ccccc45)C(C)C3)c(F)c21.[Cl-]` (configuration not stated), the MBC – broadly, the smallest concentration meeting the test's criterion for killing – in data set [1] turned out to be 2 µg/mL; in data set [2] it was 512 µg/mL; in data set [3] it was 0.5 µg/mL; in data set [7], 2 µg/mL. Further, the results for the MIC in data set [4], in data set [5] and in data set [6] were 0.25 µg/mL, 1 µg/mL and 1 µg/mL, respectively. The IC50 – broadly, the concentration that inhibits the measured activity by half – in [8] was 2.44 µM. The inhibition (usually the drop in the measured response relative to a control, in per cent) in data set [9] was “inactive”. Further, the Activity in data set [10] is on record as 44%.

For `O=C(O)C1=Cc2ccccc2N2C[N+]3(CCN(c4cc5c(cc4F)c(=O)c(C(=O)O)cn5C4CC4)CC3)N=C12.[Cl-]`, the MBC in data set [1] turned out to be 4 µg/mL; in data set [3], 2 µg/mL; in [7] it was 1 µg/mL. Further, the MIC (usually the smallest concentration in the dilution series that meets the test's criterion for growth inhibition) in [4] was found to be 2 µg/mL; in [5] it was 2 µg/mL; in data set [6] it was 1 µg/mL. Further, the result in [11], in data set [12], in data set [13] and in [16] was Active. This compound showed an IC50 in data set [8] of 6.02 µM. Moreover, the inhibition at 40 µM was 100% in data set [14] and 50% in data set [15]. Further, the Activity in data set [10] stood at 28%. Besides, the Drug uptake result in [17] is recorded as “Not Active”; in data set [18], “Dose-dependent effect”.

Consider `CCn1cc(C(=O)O)c(=O)c2cc(F)c(N3CC[N+]4(CC3)CN3C(=N4)C(C(=O)O)=Cc4ccccc43)nc21.[Cl-]`, for which the MBC in data set [1] worked out at 8 µg/mL; in [2], 512 µg/mL; in data set [3], 2 µg/mL; in data set [7] it was 2 µg/mL. For the same compound, the figures for the minimum inhibitory concentration (MIC) in [4], in [5] and in data set [6] were 1 µg/mL, 1 µg/mL and 2 µg/mL, respectively. For the same compound, the inhibition result in data set [9] is “inactive”. In addition, the results for the Ratio in data set [19] and in [20] were 16 and 4, respectively. Further, in data set [10], the Activity was 21%.

The values are drawn from ChEMBL document CHEMBL4396913, “Synthesis and biological evaluation of hybrid quinolone-based quaternary ammonium antibacterial agents” (Eur J Med Chem, 2019).
